The test system of one experiment is V79. In words: Mammalian cell cytotoxicity test in chinese hamster V79 cells (clonogenic cytotoxicity). Type of experiment: functional, cell-based.
Experiment [1] in a line: Antibacterial activity against five Gram-negative bacteria. The class given is functional. The conditions noted are these: read-out: MIC.
Where [2] appears, read: Cricetulus griseus, V79, read-out: IC50.

Converted amounts (≈) assume the structure as drawn. A value given as a limit tells only on which side of the number the result lay.

Consider `COc1c(N2CCC(N)C2)c(F)cc2c(=O)c(C(=O)O)cn(-c3ccc(F)cc3F)c12` (centres undefined), for which the IC50 with V79 (setting [2]) turned out to be 290 µg/mL (≈ 669 µM). Also, the MIC in experiment [1] turned out to be 0.35 µg/mL (≈ 0.808 µM).
With `CCNCC1CCN(c2c(F)cc3c(=O)c(C(=O)O)cn(C4CC4)c3c2Cl)C1` (stereo in doubt; 26c), the IC50 in the experiment on V79 (v79) was determined as 11 µg/mL (≈ 27 µM). In addition, in experiment [1], the MIC amounted to 0.14 µg/mL (≈ 0.343 µM).
Consider `COc1c(N2CCNCC2)c(F)cc2c(=O)c(C(=O)O)cn(C3CC3)c12`, for which the IC50 with V79 (setting [2]) stood at 82 µg/mL (≈ 227 µM). Moreover, in experiment [1], the MIC is 0.07 µg/mL (≈ 0.194 µM).
In the same order, the values of `CC1(n2cc(C(=O)O)c(=O)c3cc(F)c(N4CCC(N)C4)c(F)c32)CC1` (centres undefined) are 160 µg/mL (≈ 440 µM) and 0.3 µg/mL (≈ 0.826 µM).
In the same order, the values of `Cc1c(F)c(N2CCC(N)C2)c(C(F)(F)F)c2c1c(=O)c(C(=O)O)cn2C1CC1` (centres undefined) are 290 µg/mL (≈ 702 µM) and 0.91 µg/mL (≈ 2.2 µM).
In the same order, the values of `NC1CCN(c2c(F)cc3c(=O)c(C(=O)O)cn(C4CC4)c3c2C(F)(F)F)CC1` are 20 µg/mL (≈ 48.4 µM) and 0.26 µg/mL (≈ 0.629 µM).
In the case of `O=C(O)c1cn(C2CC2)c2c(C(F)(F)F)c(N3CCCC3)c(F)cc2c1=O`, the IC50 with V79 (setting [2]) was found to be 280 µg/mL (≈ 729 µM). Moreover, the MIC in experiment [1] was 12.5 µg/mL (≈ 32.5 µM).
The corresponding values for `NC1CCN(c2c(F)cc3c(=O)c(C(=O)O)cn(C4CC4)c3c2C(F)(F)F)C1` (stereo in doubt; 45) are 300 µg/mL (≈ 751 µM) and 0.2 µg/mL (≈ 0.501 µM).
The corresponding values for `COc1c(N2CC(C)NC(C)C2)c(F)cc2c(=O)c(C(=O)O)cn(C3CC3)c12` (centres undefined) are greater than 500 µg/mL and 0.34 µg/mL (≈ 0.873 µM).
The corresponding values for `CC1COc2c(N3CCN(C)CC3)c(F)cc3c(=O)c(C(=O)O)cn1c23` (centres undefined) [OFLOXACIN] are greater than 500 µg/mL and 0.2 µg/mL (≈ 0.553 µM).
On to `CC1(CN)CCN(c2nc3c(cc2F)c(=O)c(C(=O)O)cn3C2CC2)C1` (centres undefined), for which, in the experiment with V79 (setting [2]), the IC50 was 25 µg/mL (≈ 69.4 µM). Further, the MIC in experiment [1] is 0.35 µg/mL (≈ 0.971 µM).
In the same order, the values of `CSc1c(N2CCC(N)C2)c(F)cc2c(=O)c(C(=O)O)cn(C3CC3)c12` (centres undefined) are 31 µg/mL (≈ 82.1 µM) and 0.2 µg/mL (≈ 0.53 µM).
As to `CCNCC1CCN(c2c(F)cc3c(=O)c(C(=O)O)cn(CC4CC4)c3c2F)C1` (centres undefined), the IC50 with V79 (setting [2]) worked out at 240 µg/mL (≈ 592 µM). The MIC in experiment [1] is 4.17 µg/mL (≈ 10.3 µM).
`CC1(N)CCN(c2c(F)cc3c(=O)c(C(=O)O)cn(C4CC4)c3c2C(F)(F)F)C1` (centres undefined): the IC50 in the experiment on V79 (setting [2]) was 110 µg/mL (≈ 266 µM). Moreover, the MIC in experiment [1] came to 1 µg/mL (≈ 2.42 µM).
The corresponding values for `COc1c(N2CCC(C)(CN)C2)c(F)cc2c(=O)c(C(=O)O)cn(C3CC3)c12` (centres undefined) are 38 µg/mL (≈ 97.6 µM) and 0.26 µg/mL (≈ 0.668 µM).
In the same order, the values of `CC1CN(c2c(F)cc3c(=O)c(C(=O)O)cn(C4CC4)c3c2Cl)CCN1` (centres undefined) are 45 µg/mL (≈ 118 µM) and 0.08 µg/mL (≈ 0.211 µM).
In the same order, the values of `CC1CN(c2cc3c(cc2F)c(=O)c(C(=O)O)cn3C2CC2)CC(C)N1` (centres undefined) are greater than 500 µg/mL and 0.08 µg/mL (≈ 0.223 µM).

Broadly, the IC50 is the concentration at which inhibition is half-maximal. As a reminder, the MIC is the lowest concentration that inhibits growth of the organism.
